This note sets out measurements from patent US5274118A, “Process for preparing (2R)-methyl-4,4,4-trifluorobutylamine” (Imperial Chemical Industries PLC, priority 1990, dated 1993).

One series has as its system leukotriene LTD4. The series is described as follows: guinea-pig aerosol test (LTD4 aerosol challenge, onset of dyspnea). Type of series: in vivo. The settings on record: guinea-pigs. Here is the method:
According to this procedure, guinea-pigs are pre-dosed with test compound as a solution in poly(ethylene glycol) (generally 1 hour) before an aerosol challenge of leukotriene LTD4 (starting with 2 ml of a 30 microgram/ml solution) and the effect of the test compound on the average time of leukotriene initiated change in breathing pattern (such as onset of dyspnea) recorded and compared with that in undosed, control guinea-pigs. Percent protection engendered by a test compound was calculated from the time delay to the onset of dyspnea compared to that for control animals.

Series [1] addresses T1, leukotrienes LTC4, LTD4 and/or LTE4 (Cavia porcellus, UniProt Q2NNR5).
T1 construct: from tissue
T1 sequence (Q2NNR5 1-340): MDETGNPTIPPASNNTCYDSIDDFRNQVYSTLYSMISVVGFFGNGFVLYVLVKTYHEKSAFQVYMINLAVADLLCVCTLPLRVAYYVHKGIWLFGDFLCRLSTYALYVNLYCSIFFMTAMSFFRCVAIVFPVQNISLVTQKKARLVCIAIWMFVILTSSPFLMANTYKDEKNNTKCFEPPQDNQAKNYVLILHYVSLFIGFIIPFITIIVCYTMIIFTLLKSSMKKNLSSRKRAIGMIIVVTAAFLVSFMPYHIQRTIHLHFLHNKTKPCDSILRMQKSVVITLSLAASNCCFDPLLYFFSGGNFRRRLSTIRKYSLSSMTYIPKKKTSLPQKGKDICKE
In words: receptor-ligand binding assay described by Aharony. The settings on record: typically determined.

Take `COc1cc(C(=O)NS(=O)(=O)c2ccccc2C)ccc1Cc1cn(C)c2ccc(C(=O)NC[C@H](C)CC(F)(F)F)cc12` [compound of formula I substantially in the form of the (R)-enantiomer, (R)-3-Methoxy-4-[1-methyl-5-(2-methyl-4,4,4-trifluorobutylcarbamoyl)indol-3-ylmethyl]-N-(2-methylphenylsulfonyl)benzamide]: the ED50 with leukotriene LTD4 (Cavia porcellus, oral administration, pre-dosed generally 1 hour before LTD4 aerosol challenge, read-out: ED50 (protection against LTD4-induced dyspnea)) was found to be 1.1 µmol/kg. For the same compound, in the series with leukotriene LTD4 (oral, at several multiples of the minimum effective dose), the untoward side-effects entry is “without any indication of untoward side-effects”. Moreover, in series [1], the Ki was 0.398 nM.
